Source: patent US12371428B2 (Exelixis, Inc., priority 2019, dated 2025)
pIC50: −log10 of the molar value.

Tests used:
[1] = target: Met (phospho-Met, HGF-stimulated PC-3 prostate cancer cells) (Homo sapiens (Human), UniProt P08581); assay: Met autophosphorylation ELISA in PC-3 cells (Example F); format: cell-based; details: cellular activity; Met autophosphorylation ELISA in PC-3 cells; read-out: c-Met IC50
In short: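 PC-3 cells, serum-starved 3 h, were treated with compounds (8-point dose curve, 0.3% DMSO final) for 1 h, then stimulated with 100 ng/mL recombinant human HGF for 10 min. Lysate phospho-Met (panTyr) was quantified by sandwich ELISA; IC50 from 4-parameter logistic fit.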

[2] = target: KDR (phospho-KDR, VEGF165-stimulated HUVEC cells) (Homo sapiens (Human), UniProt P35968); assay: KDR autophosphorylation ELISA in HUVEC cells (Example G); format: cell-based; details: cellular activity; KDR autophosphorylation ELISA in HUVEC cells
In short: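 Read-out is phospho-KDR measured by ELISA in lysates of VEGF165-stimulated (100 ng/mL, 5 min) HUVEC that were serum-starved 24 h and then pre-exposed 1 h to compound across 8 doses in 0.3% DMSO. Unstimulated lysates defined 0% and stimulated vehicle lysates 100% activity; IC50 values come from 4-parameter logistic regression.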

[3] = target: Human MER (residues 528-999) (Homo sapiens (Human), UniProt Q12866); assay: Human Mer kinase assay, HTRF KinEase (Example C-2); format: biochemical; details: protocol of Example C-2
In short: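 Recombinant MER 528-999 (1 ng/well) in buffer with 5 mM MgCl2 and 1 mM DTT was reacted with biotinylated peptide and ATP at Km (40 μM) for 60 min at room temperature. EDTA stop with SA-XL665 and Eu3+ TK antibody, then 665/620 nm HTRF read; IC50 from 4-parameter fit.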

[4] = target: Human MET (residues 956-1390) (Homo sapiens (Human), UniProt P08581); assay: Human Met kinase assay, HTRF KinEase (Example D-2); format: biochemical; details: protocol of Example D-2; read-out: c-Met IC50
In short: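 MET kinase domain (956-1390), 0.1 ng/well, in buffer with 5 mM MgCl2, 1 mM DTT and 1 mM MnCl2, phosphorylated a biotinylated peptide at ATP Km for 40 min at RT; 10 concentrations, 3% DMSO final. EDTA-stopped HTRF read after 60 min; IC50 from a 4-parameter logistic fit.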

Met (phospho-Met, HGF-stimulated PC-3 prostate cancer cells), sequence (P08581 25-1390): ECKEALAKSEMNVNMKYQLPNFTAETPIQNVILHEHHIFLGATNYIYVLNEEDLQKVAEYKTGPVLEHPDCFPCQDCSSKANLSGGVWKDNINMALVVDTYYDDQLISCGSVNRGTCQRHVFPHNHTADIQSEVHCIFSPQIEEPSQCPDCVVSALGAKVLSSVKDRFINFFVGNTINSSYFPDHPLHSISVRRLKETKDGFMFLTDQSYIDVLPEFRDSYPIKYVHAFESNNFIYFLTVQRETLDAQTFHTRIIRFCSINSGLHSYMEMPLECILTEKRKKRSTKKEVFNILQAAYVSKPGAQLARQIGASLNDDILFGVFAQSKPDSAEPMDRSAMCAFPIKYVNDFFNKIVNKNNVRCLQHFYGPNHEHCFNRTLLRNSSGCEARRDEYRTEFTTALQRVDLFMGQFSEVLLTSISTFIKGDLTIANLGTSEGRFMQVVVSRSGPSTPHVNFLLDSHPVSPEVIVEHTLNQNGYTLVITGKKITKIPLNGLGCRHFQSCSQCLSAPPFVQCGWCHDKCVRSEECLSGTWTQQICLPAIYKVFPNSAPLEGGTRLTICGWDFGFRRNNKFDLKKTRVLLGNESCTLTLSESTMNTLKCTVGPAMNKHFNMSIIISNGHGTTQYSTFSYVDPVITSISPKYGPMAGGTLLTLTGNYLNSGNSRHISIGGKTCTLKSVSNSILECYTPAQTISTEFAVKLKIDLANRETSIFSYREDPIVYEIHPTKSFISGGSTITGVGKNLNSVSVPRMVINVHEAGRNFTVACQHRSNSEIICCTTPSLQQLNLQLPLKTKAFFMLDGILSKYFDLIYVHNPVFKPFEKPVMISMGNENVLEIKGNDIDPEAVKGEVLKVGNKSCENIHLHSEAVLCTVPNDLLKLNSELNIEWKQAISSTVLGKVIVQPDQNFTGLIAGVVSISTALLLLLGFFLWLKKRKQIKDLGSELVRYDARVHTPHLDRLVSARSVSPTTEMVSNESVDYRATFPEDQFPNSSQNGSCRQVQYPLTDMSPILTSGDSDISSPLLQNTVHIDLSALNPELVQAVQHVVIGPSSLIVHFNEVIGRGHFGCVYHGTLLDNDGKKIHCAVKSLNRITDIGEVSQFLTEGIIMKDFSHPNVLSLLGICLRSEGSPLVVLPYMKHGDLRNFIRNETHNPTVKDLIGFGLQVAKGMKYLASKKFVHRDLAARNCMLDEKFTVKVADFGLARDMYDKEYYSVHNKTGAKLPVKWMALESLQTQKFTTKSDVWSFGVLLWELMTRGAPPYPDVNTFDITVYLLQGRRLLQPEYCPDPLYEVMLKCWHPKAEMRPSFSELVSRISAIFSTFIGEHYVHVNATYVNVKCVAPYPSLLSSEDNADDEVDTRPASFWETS
Human MET (residues 956-1390), sequence (P08581 956-1390): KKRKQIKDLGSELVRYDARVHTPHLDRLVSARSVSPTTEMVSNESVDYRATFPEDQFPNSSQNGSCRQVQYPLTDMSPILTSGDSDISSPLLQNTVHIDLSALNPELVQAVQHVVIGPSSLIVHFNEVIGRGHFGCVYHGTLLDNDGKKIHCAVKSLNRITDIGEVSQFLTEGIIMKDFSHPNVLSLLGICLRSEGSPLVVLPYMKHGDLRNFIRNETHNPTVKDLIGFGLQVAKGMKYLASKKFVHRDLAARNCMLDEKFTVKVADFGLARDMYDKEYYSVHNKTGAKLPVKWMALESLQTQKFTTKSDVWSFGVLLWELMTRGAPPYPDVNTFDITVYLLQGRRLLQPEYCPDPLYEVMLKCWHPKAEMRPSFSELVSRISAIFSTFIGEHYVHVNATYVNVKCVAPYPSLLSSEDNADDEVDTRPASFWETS
Human MER (residues 528-999), sequence (Q12866 528-999): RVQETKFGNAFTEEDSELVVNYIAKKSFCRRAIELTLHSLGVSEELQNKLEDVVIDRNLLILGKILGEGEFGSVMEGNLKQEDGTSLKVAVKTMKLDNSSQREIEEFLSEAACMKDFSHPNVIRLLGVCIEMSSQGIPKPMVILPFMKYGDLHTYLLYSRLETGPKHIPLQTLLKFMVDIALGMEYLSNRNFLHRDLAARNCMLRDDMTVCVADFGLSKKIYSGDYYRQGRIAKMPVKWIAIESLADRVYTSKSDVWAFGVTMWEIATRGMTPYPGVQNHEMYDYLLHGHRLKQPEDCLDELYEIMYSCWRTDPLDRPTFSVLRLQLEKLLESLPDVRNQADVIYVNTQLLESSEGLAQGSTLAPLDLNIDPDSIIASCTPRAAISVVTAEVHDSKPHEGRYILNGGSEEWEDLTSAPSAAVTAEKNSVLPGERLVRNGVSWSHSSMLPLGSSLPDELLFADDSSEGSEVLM
KDR (phospho-KDR, VEGF165-stimulated HUVEC cells), sequence (P35968 20-1356): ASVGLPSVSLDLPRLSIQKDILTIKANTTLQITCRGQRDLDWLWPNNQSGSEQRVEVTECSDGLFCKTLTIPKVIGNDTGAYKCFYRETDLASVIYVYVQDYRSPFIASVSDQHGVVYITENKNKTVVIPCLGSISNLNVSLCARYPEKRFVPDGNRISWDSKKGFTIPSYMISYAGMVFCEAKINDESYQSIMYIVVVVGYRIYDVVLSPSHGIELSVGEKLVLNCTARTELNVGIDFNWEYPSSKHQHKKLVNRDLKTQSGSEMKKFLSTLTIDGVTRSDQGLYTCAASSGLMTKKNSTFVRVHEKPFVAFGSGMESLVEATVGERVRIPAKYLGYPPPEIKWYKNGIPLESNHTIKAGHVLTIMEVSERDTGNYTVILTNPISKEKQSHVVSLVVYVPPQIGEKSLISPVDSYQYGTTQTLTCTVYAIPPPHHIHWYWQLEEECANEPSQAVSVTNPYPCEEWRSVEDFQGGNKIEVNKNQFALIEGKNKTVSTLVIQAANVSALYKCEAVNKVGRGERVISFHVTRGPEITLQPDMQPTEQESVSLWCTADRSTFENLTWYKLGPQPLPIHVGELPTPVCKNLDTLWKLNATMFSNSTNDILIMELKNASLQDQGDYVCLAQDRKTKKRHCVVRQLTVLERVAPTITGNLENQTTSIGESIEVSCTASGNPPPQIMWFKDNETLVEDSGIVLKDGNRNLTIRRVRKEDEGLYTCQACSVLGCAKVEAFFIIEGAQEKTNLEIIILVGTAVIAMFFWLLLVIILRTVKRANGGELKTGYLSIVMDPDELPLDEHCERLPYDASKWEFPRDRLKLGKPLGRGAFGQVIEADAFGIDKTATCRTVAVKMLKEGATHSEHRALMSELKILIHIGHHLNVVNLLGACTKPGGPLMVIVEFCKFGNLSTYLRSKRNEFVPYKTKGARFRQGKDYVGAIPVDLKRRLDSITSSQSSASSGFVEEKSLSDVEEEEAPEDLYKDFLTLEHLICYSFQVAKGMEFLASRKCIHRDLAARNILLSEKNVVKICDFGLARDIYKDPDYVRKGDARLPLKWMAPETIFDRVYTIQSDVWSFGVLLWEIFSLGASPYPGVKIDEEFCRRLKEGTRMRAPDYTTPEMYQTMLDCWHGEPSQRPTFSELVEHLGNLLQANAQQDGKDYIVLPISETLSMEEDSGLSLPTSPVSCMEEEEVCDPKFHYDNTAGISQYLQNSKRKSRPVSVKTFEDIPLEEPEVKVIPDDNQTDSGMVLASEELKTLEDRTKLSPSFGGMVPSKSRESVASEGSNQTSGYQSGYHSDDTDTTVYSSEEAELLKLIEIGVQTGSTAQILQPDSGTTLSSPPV

Row | SMILES | pIC50 [1] | pIC50 [2] | pIC50 [3] | pIC50 [4]
1 | COc1cc2nccc(Oc3ccc(NC(=O)c4cn(C)cc(-c5ccc(F)cc5)c4=O)cc3F)c2nc1OC [Compound 45, N-[4-[(6,7-Dimethoxy-1,5-naphthyridin-4-yl)oxy]-3-fluorophenyl]-5-(4-fluorophenyl)-1-methyl-4-oxopyridine-3-carboxamide] | > 7.00 | > 7.00 | – | –
2 | COc1cc2nccc(Oc3ccc(NC(=O)c4c(C)nc(C)c(-c5ccc(F)cc5CO)c4O)cc3F)c2nc1OC [Compound 518, N-[4-[(6,7-dimethoxy-1,5-naphthyridin-4-yl)oxy]-3-fluorophenyl]-5-[4-fluoro-2-(hydroxymethyl]phenyl]-4-hydroxy-2,6-dimethylpyridine-3-carboxamide] | > 7.00 | > 7.00 | > 7.00 | > 7.00
3 | C=C(C)c1cnc2c(Oc3ccc(NC(=O)c4cnc(C)c(-c5ccc(F)cc5C)c4O)cc3F)ccnc2c1 [Compound 450, 5-(4-fluoro-2-methylphenyl)-N-[3-fluoro-4-[(7-prop-1-en-2-yl-1,5-naphthyridin-4-yl)oxy]phenyl]-4-hydroxy-6-methylpyridine-3-carboxamide] | > 7.00 | > 7.00 | > 7.00 | > 7.00
4 | COc1cnc2c(Oc3ccc(NC(=O)c4cc(C)nn(-c5ccc(F)cc5)c4=O)cc3)ccnc2c1 [Compound 522, 2-(4-fluorophenyl)-N-[4-[(7-methoxy-1,5-naphthyridin-4-yl)oxy]phenyl]-6-methyl-3-oxopyridazine-4-carboxamide] | > 7.00 | < 6.52 | 6.52 to 7.00 | 6.52 to 7.00
5 | C=C(C)c1cnc2c(Oc3ccc(NC(=O)c4cnc(C)c(-c5ccc(F)cc5)c4O)cc3F)ccnc2c1 [Compound 456, 5-(4-fluorophenyl)-N-[3-fluoro-4-[(7-prop-1-en-2-yl-1,5-naphthyridin-4-yl)oxy]phenyl]-4-hydroxy-6-methylpyridine-3-carboxamide] | > 7.00 | > 7.00 | > 7.00 | > 7.00
6 | COc1cc2nccc(Oc3ccc(NC(=O)c4cn(C(C)C)c(C)c(-c5ccc(F)cc5)c4=O)cc3F)c2nc1OC [Compound 21, N-[4-[(6,7-Dimethoxy-1,5-naphthyridin-4-yl)oxy]-3-fluorophenyl]-5-(4-fluorophenyl)-6-methyl-4-oxo-1-propan-2-ylpyridine-3-carboxamide] | > 7.00 | > 7.00 | – | –
7 | C=C(C)c1cnc2c(Oc3ccc(NC(=O)c4cnc(C)c(-c5ccc(F)cc5)c4O)cc3)ccnc2c1 [Compound 454, 5-(4-fluorophenyl)-4-hydroxy-6-methyl-N-[4-[(7-prop-1-en-2-yl-1,5-naphthyridin-4-yl)oxy]phenyl]pyridine-3-carboxamide] | > 7.00 | > 7.00 | > 7.00 | > 7.00
8 | COc1cc2nccc(Oc3ccc(NC(=O)c4cn(C(C)C)c(C)c(-c5ccc(Cl)c(Cl)c5)c4=O)cc3F)c2nc1OC [Compound 25, 5-(3,4-Dichlorophenyl)-N-[4-[(6,7-dimethoxy-1,5-naphthyridin-4-yl)oxy]-3-fluorophenyl]-6-methyl-4-oxo-1-propan-2-ylpyridine-3-carboxamide] | > 7.00 | 6.52 to 7.00 | – | –
9 | COc1cc2nccc(Oc3ccc(NC(=O)c4cn(C5COC5)cc(-c5ccc(F)cc5)c4=O)cc3F)c2nc1OC [Compound 47, N-[4-[(6,7-Dimethoxy-1,5-naphthyridin-4-yl)oxy]-3-fluorophenyl]-5-(4-fluorophenyl)-1-(oxetan-3-yl)-4-oxopyridine-3-carboxamide] | > 7.00 | < 6.52 | – | –
10 | COc1cc2nccc(Oc3ccc(NC(=O)c4cn(C(C)C)cc(-c5ccc(F)cc5)c4=O)cc3F)c2nc1OC [Compound 44, N-[4-[(6,7-Dimethoxy-1,5-naphthyridin-4-yl)oxy]-3-fluorophenyl]-5-(4-fluorophenyl)-4-oxo-1-propan-2-ylpyridine-3-carboxamide] | > 7.00 | 6.52 to 7.00 | – | –
11 | COc1cc2nccc(Oc3ccc(NC(=O)c4c[nH]c(=S)n(-c5ccc(F)cc5)c4=O)cc3F)c2nc1OC [Compound 104, N-[4-[(6,7-Dimethoxy-1,5-naphthyridin-4-yl)oxy]-3-fluorophenyl]-3-(4-fluorophenyl)-4-oxo-2-sulfanylidene-1H-pyrimidine-5-carboxamide] | > 7.00 | > 7.00 | – | –
12 | COc1cc2nccc(Oc3ccc(NC(=O)c4cn(C5CC5)cc(-c5ccc(F)cc5)c4=O)cc3F)c2nc1OC [Compound 41, 1-Cyclopropyl-N-[4-[(6,7-dimethoxy-1,5-naphthyridin-4-yl)oxy]-3-fluorophenyl]-5-(4-fluorophenyl)-4-oxopyridine-3-carboxamide] | > 7.00 | 6.52 to 7.00 | – | –

Now from value to molecule:

Row | pIC50 [1] | pIC50 [2] | pIC50 [3] | pIC50 [4] | SMILES
13 | > 7.00 | 6.52 to 7.00 | – | – | COc1cc2nccc(Oc3ccc(NC(=O)c4cn(C5CCCC5)cc(-c5ccc(F)cc5)c4=O)cc3F)c2nc1OC [Compound 46, 1-Cyclopentyl-N-[4-[(6,7-dimethoxy-1,5-naphthyridin-4-yl)oxy]-3-fluorophenyl]-5-(4-fluorophenyl)-4-oxopyridine-3-carboxamide]
14 | > 7.00 | > 7.00 | – | – | COc1cc2nccc(Oc3ccc(NC(=O)c4cn(C5CCCC5)c(C)c(-c5ccc(F)c(Cl)c5)c4=O)cc3F)c2nc1OC [Compound 27, 5-(3-Chloro-4-fluorophenyl)-1-cyclopentyl-N-[4-[(6,7-dimethoxy-1,5-naphthyridin-4-yl)oxy]-3-fluorophenyl]-6-methyl-4-oxopyridine-3-carboxamide]
15 | > 7.00 | > 7.00 | > 7.00 | > 7.00 | COc1cc2nccc(Oc3ccc(NC(=O)c4cnc(C)c(-c5ccc(F)cc5)c4O)cc3F)c2nc1C [Compound 541, N-[3-fluoro-4-[(7-methoxy-6-methyl-1,5-naphthyridin-4-yl)oxy]phenyl]-5-(4-fluorophenyl)-4-hydroxy-6-methylpyridine-3-carboxamide]
16 | > 7.00 | < 6.52 | 6.52 to 7.00 | < 6.52 | COc1ccc2nccc(Oc3ccc(NC(=O)c4c(C)n(C)cc(-c5ccc(F)cc5C)c4=O)cc3F)c2n1 [Compound 483, N-[3-fluoro-4-[(6-methoxy-1,5-naphthyridin-4-yl)oxy]phenyl]-5-(4-fluoro-2-methylphenyl)-1,2-dimethyl-4-oxopyridine-3-carboxamide]
17 | > 7.00 | > 7.00 | – | – | COc1cc2nccc(Oc3ccc(NC(=O)c4cn(C5CCCC5)c(C)c(-c5ccc(F)cc5)c4=O)cc3F)c2nc1OC [Compound 26]
18 | > 7.00 | > 7.00 | – | – | COc1cc2nccc(Oc3ccc(NC(=O)c4cn(C(C)C)cc(-c5ccc(F)cc5)c4=O)cc3F)c2cc1OC [Compound 43, N-[4-(6,7-Dimethoxyquinolin-4-yl)oxy-3-fluorophenyl]-5-(4-fluorophenyl)-4-oxo-1-propan-2-ylpyridine-3-carboxamide]
19 | 6.52 to 7.00 | < 6.52 | – | – | COc1cc2nccc(Oc3ccc(NC(=O)c4cn(C(C)C)c(C)c(-c5ccc(Cl)c(Cl)c5)c4=O)cc3F)c2cc1OC [Compound 23, 5-(3,4-Dichlorophenyl)-N-[4-(6,7-dimethoxyquinolin-4-yl)oxy-3-fluorophenyl]-6-methyl-4-oxo-1-propan-2-ylpyridine-3-carboxamide]
20 | > 7.00 | 6.52 to 7.00 | – | – | COc1cc2nccc(Oc3ccc(NC(=O)c4cn(C(C)C)c(C)c(-c5ccc(F)cc5)c4=O)cc3F)c2cc1OC [Compound 22, N-[4-(6,7-Dimethoxyquinolin-4-yl)oxy-3-fluorophenyl]-5-(4-fluorophenyl)-6-methyl-4-oxo-1-propan-2-ylpyridine-3-carboxamide]
21 | > 7.00 | > 7.00 | – | – | COc1cc2nccc(Oc3ccc(NC(=O)c4cncc(-c5ccc(F)cc5)c4O)cc3F)c2nc1OC [Compound 42, N-[4-[(6,7-Dimethoxy-1,5-naphthyridin-4-yl)oxy]-3-fluorophenyl]-5-(4-fluorophenyl)-4-hydroxypyridine-3-carboxamide]
22 | > 7.00 | > 7.00 | – | – | CNc1ncc(C(=O)Nc2ccc(Oc3ccnc4cc(OC)c(OC)nc34)c(F)c2)c(=O)n1-c1ccc(F)cc1 [Compound 99, N-[4-[(6,7-Dimethoxy-1,5-naphthyridin-4-yl)oxy]-3-fluorophenyl]-1-(4-fluorophenyl)-2-(methylamino)-6-oxopyrimidine-5-carboxamide]
23 | > 7.00 | 6.52 to 7.00 | – | – | COc1cc2nccc(Oc3ccc(NC(=O)c4cn(C(C)C)c(C)c(-c5ccc(F)c(Cl)c5)c4=O)cc3F)c2nc1OC [Compound 24, 5-(3-Chloro-4-fluorophenyl)-N-[4-[(6,7-dimethoxy-1,5-naphthyridin-4-yl)oxy]-3-fluorophenyl]-6-methyl-4-oxo-1-propan-2-ylpyridine-3-carboxamide]
